In ChEMBL document CHEMBL5728379, “Pyrido five-element aromatic ring compound, preparation method therefor and use thereof” (2021):

Assay: Enzyme-Linked Immunosorbent Assay: EZH2 wild type: Experimental method: avdin of a final concentration of 100 nM was used to coat 96-well plate at 10 μL/well, placed in a wet box and shaken overnight, and then 100 μL 3% BSA per well was added and blocked for 1 h at room temperature. PRC2 complex (EZH2/EED/SUZ12/RbAp48/AEBP2), H3 (21-44) me0 substrate, methyl donor SAM and compound were added into each well of the blocked 96-well plate. The total reaction system was 100 μL, placed in a wet box and allowed to react for 1 h on shaker at room temperature. The plate was washed with TBS-T [20 mM Tris-HCl (pH 7.2-7.4, room temperature), 150 mM NaCl, 0.1% (v/v) Tween-20] for 3 times, blocked with 3% BSA for 10 min, and anti-H3K27me3 antibody was added and incubated for 1 h in a wet box on shaker at room temperature. The plate was washed again with TBS-T for 3 times, and blocked with 3% BSA per well for 10 min. Horseradish peroxidase-labeled secondary antibody was added and reacted in a wet box at room temperature for 1 h, and finally, washed with TBS-T for 3 times. 2 mg/ml OPD color developing solution (1004/well) was added for coloring, and the reaction was stopped with 2M H2SO4 (50 μL/well). The plate was read by a plate reader at 490 nm and IC50 of the compound was calculated using SoftMax Pro 5.4.1 software.

Structure (SMILES): Cc1cc(C)c(CNC(=O)c2cc3cccn3c(C(C)OCc3ccnn3C)c2C)c(=O)[nH]1 (stereo unspecified)
- IC50: < 100 nM
